Earlier results in patent publication US8067364B2, “Deer antler extract for promoting angiogenesis” (Velvet Antler Research New Zealand Limited (VARNZ), priority 2003, dated 2011).
No end group written: not given here.

Legend:
wounds = conditions: delivered by gene therapy, local sustained delivery; literature
[1] = test system: endothelial cells, wounds; conditions: literature

Substance	angiogenesis and wound healing (wounds)	endothelial cell migration, angiogenesis, and wound healing [1]
VEGF	cause angiogenesis and enhanced wound healing	–
Thymosin α1: peptide of the Thymosin family, potential wound healing agent (Ac-SDAAVDTSSEITTKDLKEKKEVVEEAEN; ends and bridges not checked; UniProt P06454 2-29, looked up)	–	stimulates endothelial cell migration, angiogenesis, and wound healing
